Experimental findings from patent publication US20260241049A1, “Radiopharmaceutical Compositions Targeting Glypican-3 and Uses Thereof” (RayzeBio, Inc., priority 2023, published 2026) are described below.

Starred links: 1 amine or outer side, 2 acyl side, 3 side chain; linkers in the order of their positions; H or OH if unused. Positions of bridges follow the written chain, without caps; N, C: chain ends. Non-standard residues stand in square brackets, D forms with d. Residues, ends and D or L forms follow the SMILES beside them. Groups on a side chain read outwards from the residue. *: point of attachment. Phe(4-(1-Me-pyrazol-4-yl)) = Cn1cc(-c2ccc(C[C@H](N)C(=O)O)cc2)cn1; NMeAla(isoquinolin-7-yl) = CN[C@@H](Cc1ccc2ccncc2c1)C(=O)O; Phe(4-CH2COOH) = N[C@@H](Cc1ccc(CC(=O)O)cc1)C(=O)O; 3Pal(6-Ph) = N[C@@H](Cc1ccc(-c2ccccc2)nc1)C(=O)O; Phe(4-COOH) = N[C@@H](Cc1ccc(C(=O)O)cc1)C(=O)O; Piperazinyl(4-CH2COOH) = O=C(O)CN1CCN(*)CC1; NMe2Nal = CN[C@@H](Cc1ccc2ccccc2c1)C(=O)O; X1 = CO[C@@H](O)[C@H](N[*:1])C(=O)[*:2]; AEF = NCCOc1ccc(C[C@H](N)C(=O)O)cc1; NMeI = CC[C@H](C)[C@H](NC)C(=O)O; NMeQ = CN[C@@H](CCC(N)=O)C(=O)O; NMehSer = CN[C@@H](CCO)C(=O)O; NMeK = CN[C@@H](CCCCN)C(=O)O; NMeDap = CN[C@@H](CN)C(=O)O; NMeC = CN[C@@H](CS)C(=O)O; Carboxymethyl = O=C(O)C*; NMeA = CN[C@@H](C)C(=O)O; CO = O=C([*:1])[*:2]

The Kd is the constant that tells how readily two partners part at equilibrium. High values mean weaker binding, low ones tighter binding.

The target in the assay is Human Glypican3-Fc (Homo sapiens, UniProt P51654). The experiment in a line: SPR binding to Glypican-3, Method B-3 (Glypican3-Fc captured on Protein A chip, 5-point dilution series). The settings on record: SPR method B-3. On the procedure: A Protein A sensor chip (Cytiva) was inserted into a Biacore T200 (Cytiva), priming was performed three times with a running buffer: HBS-P+, pH 7.4 (Cytiva), and equilibration was carried out at a flow rate of 30 μL/min. Glypican3-Fc was allowed to react for 60 seconds at a flow rate of 10 μL/min. After capturing human Glypican3-Fe, a peptide solution prepared to 10 mM in DMSO solution was diluted with a running buffer to a final concentration of 10 μM. After that, 5 serial dilution series (100 nM, 50 nM, 25 nM, 10 nM, 5 nM) of peptide solutions were prepared. Using the above samples, peptide kinetics for Glypican3 was obtained by SPR measurement. Kinetics evaluation of Glypican3 was performed by SPR measurements at a flow rate of 10 LL/min, setting the association time to 120 seconds and the disassociation time to 600 seconds.
The obtained data by Method B-1, Method B-2, Method B-3 and Method B-4 were analyzed by follow. Single Cycle Kinetics was used as the kinetics evaluation model, and curve fitting was performed using Biacore T200 Evaluation Software Version 3.0 (Cytiva).
For orientation: In SPR one partner is held on a chip, and binding of the other changes the refractive index at the surface.

Chain of Human Glypican3-Fc (P51654 with tags, fused parts or gaps limits assumed): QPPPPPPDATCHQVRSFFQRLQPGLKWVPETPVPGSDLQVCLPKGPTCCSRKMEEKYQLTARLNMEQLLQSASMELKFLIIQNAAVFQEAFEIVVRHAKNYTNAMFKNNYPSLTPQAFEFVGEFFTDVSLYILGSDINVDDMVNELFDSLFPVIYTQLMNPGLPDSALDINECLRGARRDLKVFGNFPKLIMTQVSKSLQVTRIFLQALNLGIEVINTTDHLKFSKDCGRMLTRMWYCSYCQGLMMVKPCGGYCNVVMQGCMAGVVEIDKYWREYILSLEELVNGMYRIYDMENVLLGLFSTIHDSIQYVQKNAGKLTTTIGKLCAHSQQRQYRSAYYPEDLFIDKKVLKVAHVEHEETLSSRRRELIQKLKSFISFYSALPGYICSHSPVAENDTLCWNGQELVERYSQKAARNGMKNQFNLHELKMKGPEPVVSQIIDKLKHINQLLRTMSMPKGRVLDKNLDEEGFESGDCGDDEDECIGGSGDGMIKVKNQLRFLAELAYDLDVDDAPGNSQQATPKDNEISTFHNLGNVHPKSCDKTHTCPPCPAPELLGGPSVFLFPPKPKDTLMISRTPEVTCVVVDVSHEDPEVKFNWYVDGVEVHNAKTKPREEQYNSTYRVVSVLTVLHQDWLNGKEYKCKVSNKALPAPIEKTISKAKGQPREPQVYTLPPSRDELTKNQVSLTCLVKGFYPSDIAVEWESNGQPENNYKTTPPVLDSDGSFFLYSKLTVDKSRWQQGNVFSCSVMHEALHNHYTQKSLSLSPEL

The compound `CC[C@H](C)[C@@H]1NC(=O)[C@H](Cc2ccc(C(=O)O)cc2)NC(=O)[C@H](CCCCN)N(C)C(=O)[C@H](CC(=O)O)NC(=O)[C@H](CCC(N)=O)N(C)C(=O)[C@H](CCC(N)=O)N(C)C(=O)CSC[C@@H](C(N)=O)N(C)C(=O)[C@H](Cc2ccc(-c3cnn(C)c3)cc2)NC(=O)CNC(=O)[C@H](Cc2ccc3ccccc3c2)N(C)C(=O)[C@H](Cc2ccc(CC(=O)O)cc2)NC(=O)[C@H]([C@@H](C)CC)NC1=O` [Conjugate 2-52] ({CH2CO}-[NMeQ][NMeQ]D[NMeK][Phe(4-COOH)]II[Phe(4-CH2COOH)][NMe2Nal]G[Phe(4-(1-Me-pyrazol-4-yl))][NMeC]-NH2; thioether N-12) returned a Kd of 1.6 nM.
Turning to `CC[C@H](C)[C@@H]1NC(=O)[C@H]([C@@H](C)OC)NC(=O)[C@H](Cc2ccc(C(=O)O)cc2)NC(=O)[C@H](CNC(=O)N2CCN(CC(=O)O)CC2)N(C)C(=O)[C@H](CC(=O)O)NC(=O)[C@H](CCCCNC(=O)N2CCN(CC(=O)O)CC2)N(C)C(=O)[C@H](CCCCN)N(C)C(=O)CSC[C@@H](C(N)=O)N(C)C(=O)[C@H](Cc2ccc(-c3ccccc3)nc2)NC(=O)CNC(=O)[C@H](Cc2ccc3ccncc3c2)N(C)C(=O)[C@H](Cc2ccc(OCC(=O)O)cc2)NC1=O` [Conjugate 2-29], binding was characterised by a dissociation constant (Kd) of 1 nM.
Consider `CC[C@H](C)[C@@H]1NC(=O)[C@H]([C@@H](C)OC)NC(=O)[C@H](Cc2ccc(C(=O)O)cc2)NC(=O)[C@H](CCCCNC(=O)N2CCN(CC(=O)O)CC2)N(C)C(=O)[C@H](CC(=O)O)NC(=O)[C@H](CCCCNC(=O)N2CCN(CC(=O)O)CC2)N(C)C(=O)[C@H](CCCCN)N(C)C(=O)CSC[C@@H](C(N)=O)N(C)C(=O)[C@H](Cc2ccc(-c3ccccc3)nc2)NC(=O)CNC(=O)[C@H](Cc2ccc3ccncc3c2)N(C)C(=O)[C@H](Cc2ccc(OCC(=O)N3CCN(CC(=O)O)CC3)cc2)NC1=O` [Conjugate 2-32], for which the Kd was 1.8 nM. Against the preceding compound, the Kd is about 1.8-fold higher.
As to `CC[C@H](C)[C@@H]1NC(=O)[C@H]([C@@H](C)OC)NC(=O)[C@H](Cc2ccc(C(=O)O)cc2)NC(=O)[C@H](CCC(N)=O)N(C)C(=O)[C@H](CC(=O)O)NC(=O)[C@H](CCOC)N(C)C(=O)[C@H](CCCCN)N(C)C(=O)CSC[C@@H](C(N)=O)N(C)C(=O)[C@H](Cc2ccc(-c3ccccc3)nc2)NC(=O)CNC(=O)[C@H](Cc2ccc3ccncc3c2)N(C)C(=O)[C@H](Cc2ccc(O)cc2)NC1=O` [Conjugate 1] ({CH2CO}-[NMeK][NMehSer](Me)D[NMeQ][Phe(4-COOH)]T(Me)IY[NMeAla(isoquinolin-7-yl)]G[3Pal(6-Ph)][NMeC]-NH2; thioether N-12), binding was put at a Kd of 0.2 nM.
The compound `CC[C@H](C)[C@@H]1NC(=O)[C@H]([C@@H](C)OC)NC(=O)[C@H](Cc2ccc(C(=O)O)cc2)NC(=O)[C@H](CCC(N)=O)N(C)C(=O)[C@H](CC(=O)O)NC(=O)[C@H]([C@@H](C)CC)N(C)C(=O)[C@H](CCCCN)N(C)C(=O)CSC[C@@H](C(N)=O)N(C)C(=O)[C@H](Cc2ccc(-c3ccccc3)nc2)NC(=O)CNC(=O)[C@H](Cc2ccc3ccncc3c2)N(C)C(=O)[C@H](Cc2ccc(OCC(=O)O)cc2)NC1=O` [Conjugate 2-26] ({CH2CO}-[NMeK][NMeI]D[NMeQ][Phe(4-COOH)]T(Me)IY(Carboxymethyl)[NMeAla(isoquinolin-7-yl)]G[3Pal(6-Ph)][NMeC]-NH2; thioether N-12) had a dissociation constant (Kd) of 0.3 nM.
On to `CC[C@H](C)[C@@H]1NC(=O)[C@H]([C@@H](C)OC)NC(=O)[C@H](Cc2ccc(C(=O)O)cc2)NC(=O)[C@H](CCC(N)=O)N(C)C(=O)[C@H](CC(=O)O)NC(=O)[C@H](CCOC)N(C)C(=O)[C@H](C)N(C)C(=O)CSC[C@@H](C(N)=O)N(C)C(=O)[C@H](Cc2ccc(-c3ccccc3)nc2)NC(=O)CNC(=O)[C@H](Cc2ccc3ccccc3c2)N(C)C(=O)[C@H](Cc2ccc(OCCN)cc2)NC1=O` [Conjugate 2-28] ({CH2CO}-[NMeA][NMehSer](Me)D[NMeQ][Phe(4-COOH)]T(Me)I[AEF][NMe2Nal]G[3Pal(6-Ph)][NMeC]-NH2; thioether N-12), for which binding was put at a Kd of 0.3 nM.
In the case of `CC[C@H](C)[C@@H]1NC(=O)[C@H](Cc2ccc(C(=O)O)cc2)NC(=O)[C@H](CCC(N)=O)N(C)C(=O)[C@H](CC(=O)O)NC(=O)[C@H](CCC(N)=O)N(C)C(=O)[C@H](CCC(N)=O)N(C)C(=O)CSC[C@@H](C(N)=O)N(C)C(=O)[C@H](Cc2ccc(-c3cnn(C)c3)cc2)NC(=O)CNC(=O)[C@H](Cc2ccc3ccccc3c2)N(C)C(=O)[C@H](Cc2ccc(OCCN)cc2)NC(=O)[C@H]([C@@H](C)CC)NC1=O` [Conjugate 2-53] ({CH2CO}-[NMeQ][NMeQ]D[NMeQ][Phe(4-COOH)]II[AEF][NMe2Nal]G[Phe(4-(1-Me-pyrazol-4-yl))][NMeC]-NH2; thioether N-12), binding was characterised by a dissociation constant (Kd) of 1 nM.
The compound `CC[C@H](C)[C@@H]1NC(=O)[C@H]([C@@H](C)OC)NC(=O)[C@H](Cc2ccc(NCC(=O)O)nc2)NC(=O)[C@H](CNC(=O)N2CCN(CC(=O)O)CC2)N(C)C(=O)[C@H](CC(=O)O)NC(=O)[C@H](CCCCNC(=O)N2CCN(CC(=O)O)CC2)N(C)C(=O)[C@H](CCCCN)N(C)C(=O)CSC[C@@H](C(N)=O)N(C)C(=O)[C@H](Cc2ccc(-c3ccccc3)nc2)NC(=O)CNC(=O)[C@H](Cc2ccc3ccncc3c2)N(C)C(=O)[C@H](Cc2ccc(OCC(=O)O)cc2)NC1=O` [Conjugate 2-30] had a dissociation constant Kd of 6.6 nM.
Compound `CC[C@H](C)[C@@H]1NC(=O)[C@H](Cc2ccc(C(=O)O)cc2)NC(=O)[C@H](CCC(N)=O)N(C)C(=O)[C@H](CC(=O)O)NC(=O)[C@H](CCOC)N(C)C(=O)[C@H](CCCCN)N(C)C(=O)CSC[C@@H](C(N)=O)N(C)C(=O)[C@H](Cc2ccc(-c3cnn(C)c3)cc2)NC(=O)CNC(=O)[C@H](Cc2ccc3ccccc3c2)N(C)C(=O)[C@H](Cc2ccc(CC(=O)O)cc2)NC(=O)[C@H]([C@@H](C)CC)NC1=O` [Conjugate 2-48] ({CH2CO}-[NMeK][NMehSer](Me)D[NMeQ][Phe(4-COOH)]II[Phe(4-CH2COOH)][NMe2Nal]G[Phe(4-(1-Me-pyrazol-4-yl))][NMeC]-NH2; thioether N-12) had a Kd of 0.5 nM.
In turn, `CC[C@H](C)[C@@H]1NC(=O)[C@H]([C@H](O)OC)NC(=O)[C@H](Cc2ccc(C(=O)O)cc2)NC(=O)[C@H](CCC(N)=O)N(C)C(=O)[C@H](CC(=O)O)NC(=O)[C@H](CCOC)N(C)C(=O)[C@H](CCCCNC(=O)N2CCN(CC(=O)O)CC2)N(C)C(=O)CSC[C@@H](C(N)=O)N(C)C(=O)[C@H](Cc2ccc(-c3ccccc3)nc2)NC(=O)CNC(=O)[C@H](Cc2ccc3ccncc3c2)N(C)C(=O)[C@H](Cc2ccc(O)cc2)NC1=O` [Conjugate 2-25] ({CH2CO}-[NMeK]([CO-Piperazinyl(4-CH2COOH)])[NMehSer](Me)D[NMeQ][Phe(4-COOH)][X1]IY[NMeAla(isoquinolin-7-yl)]G[3Pal(6-Ph)][NMeC]-NH2; thioether N-12) showed a Kd of 6.6 nM. Against the preceding compound, the Kd is about 13-fold higher.
`CC[C@H](C)[C@@H]1NC(=O)[C@H]([C@@H](C)OC)NC(=O)[C@H](Cc2ccc(C(=O)O)cc2)NC(=O)[C@H](CNC(=O)N2CCN(CC(=O)O)CC2)N(C)C(=O)[C@H](CC(=O)O)NC(=O)[C@H](CCOC)N(C)C(=O)[C@H](CNC(=O)N2CCN(CC(=O)O)CC2)N(C)C(=O)CSC[C@@H](C(N)=O)N(C)C(=O)[C@H](Cc2ccc(-c3ccccc3)nc2)NC(=O)CNC(=O)[C@H](Cc2ccc3ccncc3c2)N(C)C(=O)[C@H](Cc2ccc(OCCN)cc2)NC1=O` [Conjugate 2-37] ({CH2CO}-[NMeDap]([CO-Piperazinyl(4-CH2COOH)])[NMehSer](Me)D[NMeDap]([CO-Piperazinyl(4-CH2COOH)])[Phe(4-COOH)]T(Me)I[AEF][NMeAla(isoquinolin-7-yl)]G[3Pal(6-Ph)][NMeC]-NH2; thioether N-12 (inferred)) had a Kd of 1 nM. Compared with the last compound, the Kd is about 6.6-fold lower.
Compound `CC[C@H](C)[C@@H]1NC(=O)[C@H](Cc2ccc(C(=O)O)cc2)NC(=O)[C@H](CCC(N)=O)N(C)C(=O)[C@H](CC(=O)O)NC(=O)[C@H]([C@@H](C)CC)N(C)C(=O)[C@H](CCCCNC(C)=O)N(C)C(=O)CSC[C@@H](C(N)=O)N(C)C(=O)[C@H](Cc2ccc(-c3ccccc3)nc2)NC(=O)CNC(=O)[C@H](Cc2ccc3ccncc3c2)N(C)C(=O)[C@H](Cc2ccc(O)cc2)NC(=O)[C@H]([C@@H](C)CC)NC1=O` [Conjugate 2-4] ({CH2CO}-[NMeK](Ac)[NMeI]D[NMeQ][Phe(4-COOH)]IIY[NMeAla(isoquinolin-7-yl)]G[3Pal(6-Ph)][NMeC]-NH2; thioether N-12) registered a Kd of 0.3 nM.
`CC[C@H](C)[C@@H]1NC(=O)[C@H]([C@@H](C)OC)NC(=O)[C@H](Cc2ccc(C(=O)O)cc2)NC(=O)[C@H](CCC(N)=O)N(C)C(=O)[C@H](CC(=O)O)NC(=O)[C@H]([C@@H](C)CC)N(C)C(=O)[C@H](CCCCN)N(C)C(=O)CSC[C@@H](C(N)=O)N(C)C(=O)[C@H](Cc2ccc(-c3ccccc3)nc2)NC(=O)CNC(=O)[C@H](Cc2ccc3ccncc3c2)N(C)C(=O)[C@H](Cc2ccc(O)cc2)NC1=O` [Conjugate 2-60] ({CH2CO}-[NMeK][NMeI]D[NMeQ][Phe(4-COOH)]T(Me)IY[NMeAla(isoquinolin-7-yl)]G[3Pal(6-Ph)][NMeC]-NH2; thioether N-12) gave a Kd of 0.23 nM.
`CC[C@H](C)[C@@H]1NC(=O)[C@H]([C@@H](C)OC)NC(=O)[C@H](Cc2ccc(C(=O)O)cc2)NC(=O)[C@H](CNC(=O)N2CCN(CC(=O)O)CC2)N(C)C(=O)[C@H](CC(=O)O)NC(=O)[C@H](CCOC)N(C)C(=O)[C@H](CCCCNC(=O)N2CCN(CC(=O)O)CC2)N(C)C(=O)SCC[C@@H](C(N)=O)N(C)C(=O)[C@H](Cc2ccc(-c3ccccc3)nc2)NC(=O)CNC(=O)[C@H](Cc2ccc3ccncc3c2)N(C)C(=O)[C@H](Cc2ccc(OCCN)cc2)NC1=O` [Conjugate 2-38] returned a dissociation constant Kd of 1.8 nM.
